Results from patent US11213522B2, “Autoimmune-induced glutamatergic receptor dysfunction methods and treatments” (SARAH HERZOG MEMORIAL HOSPITAL EZRAT NASHIM ASSOCIATION, priority 2013, dated 2022).

Key:
Type in all cases: in vivo, human
[1] = tested on: patient positive for anti-NR1 NMDAR antibodies; test: Simpson Angus Scale for Extrapyramidal Symptoms (SAS), D-serine clinical trial; settings: week 0 score 5
Description: Out of the seventeen patients that entered the study, the serum of one patient was strongly positive at both serum sample dilutions for the presence of both IgG and IgM classes of anti-NR1 NMDAR antibodies. The patient was a single person having a diagnosis of schizophrenia according to DSM-IV-R criteria (American Psychiatric Association, 2000 Diagnostic and Statistical Manual of Mental Disorders-(DSM-IV-TR), 4th edition. American Psychiatric Association Washington D.C. (Text Revision)). There was no history of mental disorder in the patient's family. The patient had completed post-high school studies and had worked as a secretary. After a period of continuous headaches, for which no organic basis had been found, they had abruptly developed an acute psychosis characterized by grandiose and paranoid delusions, mystical thinking, […] affect and agitation, They had been hospitalized in a psychiatric hospital and underwent treatment with antipsychotic drugs and electroconvulsive therapy with only partial response. The patient had never returned to their previous functional and except for short attempts at living in the community, has been hospitalized ever since. They have been refractory to treatment with various classes of antipsychotic drugs, was not diagnosed with any medical or neurological disorder and was maintained on sulpiride 50 mg/day, citalopram 40 mg/day, lorazepam 1 mg/day and promethazine 50 mg/day. […] DSR is a naturally occurring amino acid that acts in vivo as an obligatory co-agonist at the glycine modulatory site associated with NMDAR. […] Both acute and chronic administration of 1-2 g DSR in humans is known to result in ≥100 times increases in DSR serum levels (Kantrowitz et al., 2010, Schizophr Res121:125-30; Heresco-Levy et al., 2005, Biol Psychiatry 57:577-85). […] In conjunction with UKU ratings, patient's vital signs and body weight were monitored throughout the study.

[2] = tested on: patient positive for anti-NR1 NMDAR antibodies; test: Time Wall; settings: post-6 weeks D-serine
Procedure: (§1) The trial consisted of two periods, starting with a 2 week lead-in/stabilization period (−2-0) following which the patient was entered in the second period of the study which consisted of a 6 week (0-6), open-label, fixed dose therapy phase. During this phase, the patient received adjuvant treatment with DSR, whose dose was increased from 1500 mg/day (week 1) to 2000 mg/day (weeks 2 and 3) to 3000 mg/day (weeks 4 and 5) and to 4000 mg/day (week 6). The doses of the ongoing medication received by the patient remained fixed throughout the study and no changes in medication were performed.
In addition, cognitive performance was assessed pre- and post DSR treatment. For this purpose, a 1.5-hour neurocognitive assessment battery (nine computerized and two paper/pencil tests) was employed that measures accuracy and speed of performance in major cognition domains, including attention/vigilance, planning, short-term and working memory, decision making, abstraction and mental flexibility. All the tests were formatted like games and puzzles, and were administered to the patient as part of the comprehensive neuropsychiatric assessment at baseline and the end of study. […]

[3] = tested on: patient positive for anti-NR1 NMDAR antibodies; test: Wisconsin Card Sort Test (WCST); settings: post-6 weeks D-serine; pre-treatment subject unable to complete task
Procedure: as §1
In addition, cognitive performance was assessed pre- and post DSR treatment. For this purpose, a 1.5-hour neurocognitive assessment battery (nine computerized and two paper/pencil tests) was employed that measures accuracy and speed of performance in major cognition domains, including attention/vigilance, planning, short-term and working memory, decision making, abstraction and mental flexibility. All the tests were formatted like games and puzzles, and were administered to the patient as part of the comprehensive neuropsychiatric assessment at baseline and the end of study. The neurocognitive battery included the 1) Test of Attentional Vigilance (TOAV, (Forbes, 1998, Journal of Clinical Psychology 54:461-476; Greenberg, 1993, Journal of Child Psychology and Psychiatry 34: 1019-30)); 2) Tower of London (TOL, (Shailice, 1982, Specific impairments of planning Philosophical Transactions of the Royal Society of London. Series B, Biological Sciences 298:199-209); 3-4) Digit Span Test (DST, forward and backward (Wechsler 1997, The Wechsler adult intelligence scale-III. San Antonio, Tex.: Psychological Corporation; Kaplan 1991, The WAIS-R as a neuropsychological instrument. San Antonio, Tex.: The Psychological Corporation; Lamar et al., 2007, Neuropsychologia 45:245-54; Lamar et al., 2008, Neuropsychologia 46:2597-601)); 5-6) Corsi Block Tapping Test (CBTT, forward and backward, (Corsi, 1972, Dissertation Abstracts International. 34:819B; Kessels et al., 2000, Applied Neuropsychology 7:252-58, Kessels et al., 2008, Assessment 15:426-34)); 7) Flanker Task (Erikson and Eriksen, 1974; Perception & Psychophysics 25: 249-63, Stins et. al., 2007, Advances in Cognitive Psychology 3:389-96); 8) Time Wall (Perez et al., 1987, Unified Tri-services cognitive performance assessment battery: review and methodology; DTIC Document ADA181697, http://www.dtic.mil/dtic/tr/fulltext/u2/a81697.pdf); and Wisconsin Card Sort Test (WCST, (Berg, 1948, J Gen Psychol39:15-22; Nelson, 1976, Cortex 12:313-24)). […]

## N[C@H](CO)C(=O)O [D-serine]
[1]; study week 2
  SAS: 4
[1]; study week 4
  SAS: 4
[1]; study week 6
  SAS: 3
[2]; pre-treatment 0.056 ± 0.053
  Time Wall accuracy score, mean ± SD: 0.077 ± 0.051
[2]; pre-treatment 12
  Time Wall correctly estimated trials, total (0-20): 6
[3]
  WCST Category Score: 5
  WCST Total correct score %: 81.25%
  WCST Total error score %: 18.75%
  WCST Trials to complete 1st category: 12
